Test results from patent US20230048888A1, “USE OF TRIAZOLOTRIAZINE DERIVATIVE IN TREATMENT OF DISEASES” (ZHEJIANG VIMGREEN PHARMACEUTICALS, LTD., priority 2019, published 2023).
Read-outs that look alike come from different tables or passages of the source.

Assays:
Format in all cases: in vivo
[1] = system: haloperidol-induced stiffness; assay: Haloperidol-induced Parkinson's disease stiffness model in CD-1 mice (rearing and bar tests)
Description: Parkinson's disease (PD) is a common class of degenerative disease of the nervous system with the main pathological changes including the loss of substantia nigra dopaminergic neurons and the decrease of dopamine transmitter content, leading to tremor at rest, muscle stiffness, […], postural reflex disorders and other clinical symptoms. Haloperidol, a dopamine D2 receptor blocker, can block the dopamine D2 receptor in the striatum, leading to mouse dystonic postures, namely, stiffness and hypokinesia. This model is a recognized animal model of Parkinson's syndrome. The ameliorative effect of a test substance on the stiffness symptom of Parkinson's disease induced by haloperidol in CD-1 mice was evaluated. 57 SPF-grade male CD-1 mice (4 weeks old at the time of purchase and 8 weeks old at the time of experiment) with the weight of about 40 g were randomly divided into 5 groups, namely, a vehicle group (n=11), a group of 1 mg/kg benzene sulfonate of Compound 40 (n=11), a group of 3 mg/kg benzene sulfonate of Compound 40 (n=12), a group of 10 mg/kg benzene sulfonate of Compound 40 (n=12), and a group of 30 mg/kg benzene sulfonate of Compound 40 (n=11). 1 mg/kg haloperidol was injected subcutaneously at an injection volume of 10 ml/kg. 30 minutes after the injection, Compound 40 at each dose was intragastrically infused at a volume of 10 ml/kg. At the 1st hour and the 4th hour after the administration was completed, the rearing and bar tests were performed respectively, and the number of standings and on-bar time of the mice were counted to evaluate the ameliorative effect of Compound 40 on the stiffness symptom of haloperidol-induced Parkinson's disease in CD-1 mice. […] Firstly, the acetate of Compound 22 at each dose was intragastrically infused at a volume of 10 ml/kg. After 30 min, 1 mg/kg haloperidol was injected subcutaneously at an injection volume of 10 ml/kg. At the 1st hour and the 4th hour after the administration was completed, the rearing and bar tests were performed respectively, and the number of standings and on-bar time of the mice were counted to evaluate the ameliorative effect of the acetates of Compound 22 on the stiffness symptom of haloperidol-induced Parkinson's disease in CD-1 mice. […] Firstly, Compound 27 at each dose was intragastrically infused at a volume of 10 ml/kg. After 30 min, 1 mg/kg haloperidol was injected subcutaneously at an injection volume of 10 ml/kg. At the 1st hour and the 4th hour after the administration was completed, the rearing and bar tests were performed respectively, and the number of standings and on-bar time of the mice were counted to evaluate the ameliorative effect of Compound 27 on the stiffness symptom of haloperidol-induced Parkinson's disease in CD-1 mice. The mice were subcutaneously injected with haloperidol at abdomen at a dose of 1 mg/kg, with the concentration of a working solution of 0.1 mg/ml and an injection volume of 10 ml/kg. At the 1st hour and the 4th hour after drug intervention, the mice were put into a white transparent plastic bucket with a diameter of 20 cm and a height of 21 cm. The mice were allowed to acclimate in the bucket for 5 min before starting video recording. The spontaneous activity behaviors of the mice within 10 minutes were recorded, whereby the number of standings was counted. The more the standings, the more frequent the spontaneous exploration activities of the mice, and the lower the degree of stiffness. At the time points of 1st and 4th hours after the rearing test was completed, bar test was carried out. The mice were placed on a long wooden bar with a diameter of […] and a height of 6 cm. The mice were let to hold the wooden bar with forelimbs, only with the buttocks or hind limbs on the ground. The timing was stopped when the hind limbs left the bench top or the fore limbs left the wooden bar, and the on-bar time of the mice was recorded. Each mouse was tested 3 times, and the maximum on-bar time and the average on-bar time were counted. […]

[2] = Pharmacokinetics of test compounds in SD rats (15.2; IV and PO, mixed administration); settings: for Cl_pred / AUC(0-t) / Cmax / half-life: IV; for AUC(0-t) / Cmax / half-life: male, Sprague-Dawley, rat, plasma; for half-life: read-out: T½ (converted)
[3] = system: haloperidol-induced stiffness; assay: Haloperidol-induced rat Parkinson's disease stiffness model (stiffness latency on metal rod)
Experimental: The animals required for the day were transferred from the rearing room to an operation room in advance, and were let to acclimate for at least 30 min before the test was initiated. […] After 30 minutes, the test animals were intraperitoneally injected with haloperidol or vehicle 2 without haloperidol, and put back to the original rearing cages. At 60 and 120 minutes after the injection of haloperidol or vehicle 2, the forelimbs of the rat were gently placed vertically on a horizontal metal rod with a length of 20.5 cm, a diameter of 1.2 cm, and a height of 8.5 cm above the workbench, then its hind limbs were gently placed on a test box, and timing started. When the rat moved or climbed down on the metal rod with forelimbs, the timing was stopped, and the duration for the two forelimbs of the rat to maintain the posture on the metal rod was recorded, i.e., being recorded as stiffness latency. If the rat's front paws were not put down, the observation was terminated after 600 sec, and the stiffness latency of this animal was recorded as 600 sec. When the rod climbing test was completed that day, 5 animals from each group were perfused and fixed, and whole brains were removed for preservation. Stiffness latency: the time for the two forelimbs of a rat to keep still on the metal rod. The longest stiffness latency was 600 sec. Stiffness rate %=(stiffness latency/600)*100% All measurement data were represented as mean±standard error of mean (mean±SEM), and check analysis was performed by Prism 8.0 statistical software.

[4] = Experiment III, 3 mg/kg intragastric, 1 h
[5] = Experiment III, 3 mg/kg intragastric, 4 h
[6] = Experiment III, 10 mg/kg intragastric, 1 h
[7] = Experiment III, 10 mg/kg intragastric, 4 h
[8] = Experiment III, 30 mg/kg intragastric, 1 h
[9] = Experiment III, 30 mg/kg intragastric, 4 h
[10] = Experiment II, 10 mg/kg intragastric, 1 h
[11] = Experiment II, 10 mg/kg intragastric, 4 h
[12] = 10 mg/kg intragastric, 60 min after haloperidol
[13] = 10 mg/kg intragastric, 120 min after haloperidol
[14] = Experiment II, 3 mg/kg intragastric, 1 h
[15] = Experiment II, 3 mg/kg intragastric, 4 h
[16] = Experiment II, 30 mg/kg intragastric, 1 h
[17] = Experiment II, 30 mg/kg intragastric, 4 h

| Compound | Average on-bar time [1, 6] [s] | Maximum on-bar time [1, 6] [s] | Average on-bar time [1, 7] [s] | Maximum on-bar time [1, 7] [s] | Cl_pred ([2]; 1 mg/kg) [mL/min/kg] | AUC(0-t) ([2]; 1 mg/kg) [ng·h/mL] | Cmax ([2]; 1 mg/kg) [ng/mL] | half-life ([2]; 1 mg/kg) [min] | Average on-bar time [1, 10] [s] | Maximum on-bar time [1, 10] [s] | Average on-bar time [1, 11] [s] | Maximum on-bar time [1, 11] [s] | Stiffness rate ([3]; 10 mg/kg intragastric, 60 min) [%] | Stiffness latency [3, 12] [s] | Stiffness rate ([3]; 10 mg/kg intragastric, 120 min) [%] | Stiffness latency [3, 13] [s] | also measured |
| --- | --- | --- | --- | --- | --- | --- | --- | --- | --- | --- | --- | --- | --- | --- | --- | --- | --- |
| COCCNc1ccc(CCNc2nc(N)n3nc(-c4ccco4)nc3n2)cc1 [Compound 27, 2-(furan-2-yl)-N5-(4-((2-methoxyethyl)amino)phenethyl)-[1,2,4]triazolo[1,5-a][1,3,5]triazine-5,7-diamine] | 34.83 ± 8.63 | 61.38 ± 15.59 | 39.13 ± 14.33 | 55.13 ± 18.32 | 188.857 | 83.8 | 139 | 28.2 |  |  |  |  |  |  |  |  | Average on-bar time [1, 4]: 56.83 ± 11.67 s; Maximum on-bar time [1, 4]: 88.00 ± 22.07 s; Average on-bar time [1, 5]: 75.11 ± 19.52 s; Maximum on-bar time [1, 5]: 109.33 ± 28.68 s; Average on-bar time [1, 8]: 22.04 ± 4.19 s; Maximum on-bar time [1, 8]: 35.00 ± 8.59 s; Average on-bar time [1, 9]: 23.00 ± 4.46 s; Maximum on-bar time [1, 9]: 31.88 ± 5.75 s |
| CCn1c(=O)c2c(nc(/C=C/c3ccc(OC)c(OC)c3)n2C)n(CC)c1=O [Istradefylline, reference compound] | 23.71 ± 6.50 | 40.75 ± 13.17 | 34.08 ± 6.69 | 54.75 ± 15.58 |  |  |  |  | 23.04 ± 4.88 | 30.38 ± 5.84 | 24.67 ± 5.21 | 35.75 ± 8.73 | 0.2 ± 0.1 | 1.4 ± 0.8 | 0.07 ± 0.05 | 0.4 ± 0.3 |  |
| CC(=O)O.Nc1nc(NCCc2ccc(NC3COC3)cc2)nc2nc(-c3ccco3)nn12 [Acetate of Compound 22, 2-(furan-2-yl)-N5-(4-(oxetane-3-ylamino)phenethyl)-[1,2,4]triazolo[1,5-a][1,3,5]triazine-5,7-diamine acetate] |  |  |  |  |  |  |  |  | 41.88 ± 10.56 | 77.13 ± 25.78 | 33.17 ± 6.69 | 50.50 ± 12.24 | 0.1 ± 0.06 | 0.7 ± 0.4 | 0.4 ± 0.2 | 2.6 ± 1.5 | Average on-bar time [1, 14]: 109.38 ± 13.74 s; Maximum on-bar time [1, 14]: 157.50 ± 18.11 s; Average on-bar time [1, 15]: 109.33 ± 26.37 s; Maximum on-bar time [1, 15]: 172.25 ± 58.28 s; Average on-bar time [1, 16]: 26.17 ± 3.88 s; Maximum on-bar time [1, 16]: 42.25 ± 8.18 s; Average on-bar time [1, 17]: 24.13 ± 4.28 s; Maximum on-bar time [1, 17]: 32.88 ± 6.21 s; Stiffness rate ([3]; 3 mg/kg intragastric, 60 min): 1.6 ± 0.8%; Stiffness latency ([3]; 3 mg/kg intragastric, 60 min after haloperidol): 9.3 ± 4.5 s; Stiffness rate ([3]; 3 mg/kg intragastric, 120 min): 4.1 ± 1.9%; Stiffness latency ([3]; 3 mg/kg intragastric, 120 min after haloperidol): 24.8 ± 11.2 s; Stiffness rate ([3]; 30 mg/kg intragastric, 60 min): 0.1 ± 0.05%; Stiffness latency ([3]; 30 mg/kg intragastric, 60 min after haloperidol): 0.6 ± 0.3 s; Stiffness rate ([3]; 30 mg/kg intragastric, 120 min): 0.1 ± 0.07%; Stiffness latency ([3]; 30 mg/kg intragastric, 120 min after haloperidol): 0.6 ± 0.4 s |
| Cn1nnc(-c2ccc(CCNc3nc(N)n4nc(-c5ccco5)nc4n3)cc2)n1 [Compound 40, N5-(4-(2-methyl-2H-tetrazol-5-yl)phenethyl)-2-(furan-2-yl)-[1,2,4]triazolo[1,5-a][1,3,5]triazine-5,7-diamine] |  |  |  |  | 11.834 | 1410 | 1280 | 46.8 |  |  |  |  |  |  |  |  | Cl_pred ([2]; 1.64 mg/kg): 27.0478 mL/min/kg; Cl_F_pred ([2]; PO, […]): 23.254 mL/min/kg; F ([2]; PO, […]): 116.3%; AUC(0-t) ([2]; 1.64 mg/kg): 1010 ng·h/mL; Cmax ([2]; 1.64 mg/kg): 1310 ng/mL; half-life ([2]; 1.64 mg/kg): 31.8 min |
